Results from patent US6365616B1, “Methimazole derivatives and tautomeric cyclic thiones to treat autoimmune diseases” (Sentron Medical, Inc., priority 1998, dated 2002).
Marks after values point to notes of the source that are not given here.

Legend:
MHC class II RNA = experiment: Northern analysis of MHC class II RNA levels in FRTL-5 cells; assay type: cell-based, rat; conditions: 100 U/ml γ-interferon, 6H medium, 40 hours
(NZB x NZW)F1 mice = experiment: Prevention of proteinuria (SLE model) in female (NZB x NZW)F1 mice; assay type: in vivo; conditions: for Animals with proteinuria, 30-500 (mg/dl proteinuria) / Animals with proteinuria, >500 (mg/dl proteinuria) / Animals with proteinuria, Neg-Trace (mg/dl proteinuria) / development of proteinuria at 7.5 mos: oral; for Animals with proteinuria, 30-500 (mg/dl proteinuria) / Animals with proteinuria, >500 (mg/dl proteinuria) / Animals with proteinuria, Neg-Trace (mg/dl proteinuria): 0.05% MMI, 0.01% 5-phenylmethimazole, 0.05% 2-mercaptoimidazole; for significant numbers of immune complexes in kidneys (FIG. 15): immunohistology of frozen kidney sections; for development of proteinuria at 7.5 mos: compound 10 at a fifth the MMI concentration
From the text: Female (NZB x NZW)F1 mice were obtained from Jackson Labs. Animals were followed with AMES 2855 Uristix (Miles) to semiquantitatively measure proteinuria. Proteinuria was taken as a measure of development of SLE and MMI suppression of proteinuria as suppression of renal complexes in kidney (Mozes et al., J. Clin Immunology 18:106-113 (1998)). At 7-8 mos. mice develop proteinuria reflecting renal disease. Treatment was from 2 mos to 6 mos of age. Treatment was oral. Each group had 8 animals to start.
In this experiment, immunohistology was performed in a blind fashion on 5 μm thick frozen kidney sections which were fixed and stained with FITC-conjugated goat antibodies to immunoglobulin G (γ chain specific) as described (Mozes, et al., Science 261:91-93 (1993); Mozes, E., et al., ibid (1998)). Compound 10, a tautomeric cyclic thione, and MMI are effective in preventing SLE in this experimental model.
Death of some animals in this experiment occurred for technical reasons, i.e. flooding of cages, handling, etc., in the last 2 mos. However, losses in the control group were similar to experimental groups. MMI, 2-mercaptoimidazole, and Compound 10 treatments were administered during the period between 2 and 6.25 months of age.

Structure (SMILES): Cn1ccnc1S [Compound 1, 1-Methylimidazole-2-thiol]
- % inhibition of class II RNA expression (MHC class II RNA; 100 μM): None
- % inhibition of class II RNA expression (MHC class II RNA; 1 mM): 29 ± 9%
- Animals with proteinuria, 30-500 (mg/dl proteinuria) ((NZB x NZW)F1 mice; 6 mos): 0 of 8
- Animals with proteinuria, >500 (mg/dl proteinuria) ((NZB x NZW)F1 mice; 6 mos): 0 of 8
- Animals with proteinuria, Neg-Trace (mg/dl proteinuria) ((NZB x NZW)F1 mice; 6 mos): 8 of 8
- Animals with proteinuria, 30-500 (mg/dl proteinuria) ((NZB x NZW)F1 mice; 7.5 mos): 2 of 5
- Animals with proteinuria, >500 (mg/dl proteinuria) ((NZB x NZW)F1 mice; 7.5 mos): 0 of 5
- Animals with proteinuria, Neg-Trace (mg/dl proteinuria) ((NZB x NZW)F1 mice; 7.5 mos): 3 of 5
- significant numbers of immune complexes in kidneys (FIG. 15) ((NZB x NZW)F1 mice): not true
- development of proteinuria at 7.5 mos ((NZB x NZW)F1 mice): significantly prevented proteinuria

Structure (SMILES): Cc1ncc([N+](=O)[O-])n1CCO [Compound 2, 2-Methyl-5-nitro-1-imidazole ethanol]
- % inhibition of class II RNA expression (MHC class II RNA; 100 μM): 11 ± 10%
- % inhibition of class II RNA expression (MHC class II RNA; 1 mM): 45 ± 13%

Structure (SMILES): Sc1ncc[nH]1 [Compound 3, 2-Mercaptoimidazole]
- Animals with proteinuria, 30-500 (mg/dl proteinuria) ((NZB x NZW)F1 mice; 6 mos): 4 of 7
- Animals with proteinuria, >500 (mg/dl proteinuria) ((NZB x NZW)F1 mice; 6 mos): 0 of 7
- Animals with proteinuria, Neg-Trace (mg/dl proteinuria) ((NZB x NZW)F1 mice; 6 mos): 3 of 7
- Animals with proteinuria, 30-500 (mg/dl proteinuria) ((NZB x NZW)F1 mice; 7.5 mos): 3 of 6
- Animals with proteinuria, >500 (mg/dl proteinuria) ((NZB x NZW)F1 mice; 7.5 mos): 3 of 6
- Animals with proteinuria, Neg-Trace (mg/dl proteinuria) ((NZB x NZW)F1 mice; 7.5 mos): 0 of 6
- development of proteinuria at 7.5 mos ((NZB x NZW)F1 mice): developed significant proteinuria

Structure (SMILES): CSc1nccn1C [Compound 7, S-Methylmethimazole]
- % inhibition of class II RNA expression (MHC class II RNA; 100 μM): 22 ± 17%
- % inhibition of class II RNA expression (MHC class II RNA; 1 mM): 62 ± 14%

Structure (SMILES): Cn1ccn(C)c1=S [Compound 8, N-Methylmethimazole]
- % inhibition of class II RNA expression (MHC class II RNA; 100 μM): 32 ± 5%
- % inhibition of class II RNA expression (MHC class II RNA; 1 mM): 59 ± 12%

Structure (SMILES): Cn1c(-c2ccccc2)cnc1S [Compound 10, 5-Phenylmethimazole]
- % inhibition of class II RNA expression (MHC class II RNA; 100 μM): 75 ± 15%
- % inhibition of class II RNA expression (MHC class II RNA; 1 mM): 87 ± 4%
- Animals with proteinuria, 30-500 (mg/dl proteinuria) ((NZB x NZW)F1 mice; 6 mos): 0 of 8
- Animals with proteinuria, >500 (mg/dl proteinuria) ((NZB x NZW)F1 mice; 6 mos): 0 of 8
- Animals with proteinuria, Neg-Trace (mg/dl proteinuria) ((NZB x NZW)F1 mice; 6 mos): 8 of 8
- Animals with proteinuria, 30-500 (mg/dl proteinuria) ((NZB x NZW)F1 mice; 7.5 mos): 1 of 6
- Animals with proteinuria, >500 (mg/dl proteinuria) ((NZB x NZW)F1 mice; 7.5 mos): 0 of 6
- Animals with proteinuria, Neg-Trace (mg/dl proteinuria) ((NZB x NZW)F1 mice; 7.5 mos): 5 of 6*
- significant numbers of immune complexes in kidneys (FIG. 15) ((NZB x NZW)F1 mice): not true
- toxicity in vivo ((NZB x NZW)F1 mice; one-fifth the MMI concentration, NZB and NOD mouse experiments): nontoxic
- development of proteinuria at 7.5 mos ((NZB x NZW)F1 mice): significantly prevented proteinuria
